From patent publication US8765748B2, “Indazolyl, benzimidazolyl, benzotriazolyl substituted indolinone derivatives as kinase inhibitors useful in the treatment of cancer” (University Health Network, priority 2007, dated 2014) come the findings set out here.

In assay [1] the test system is Colo 205 colon cancer cell line. The assay is described as follows: Cell growth inhibition, SRB assay, extended panel. The note with it: Homo sapiens, read-out: GI50 Range, Colo 205. It is filed as cell-based.
For assay [2], the system named is 184A1 immortalized breast cell line. The assay is described as follows: Cell growth inhibition, SRB assay, extended panel. It is filed as cell-based. The note with it: read-out: GI50 Range, 184A1. In general terms: The SRB assay estimates cell density from bound dye.
The subject of assay [3] is OVCAR-3 ovarian cancer cell line. The experiment in a line: Cell growth inhibition, SRB assay, extended panel. As to conditions: Homo sapiens, read-out: GI50 Range, OVCAR-3. It counts as cell-based.
Assay [4] concerns H358 lung cancer cell line. The assay is described as follows: Cell growth inhibition, SRB assay, extended panel. It is filed as cell-based. The note with it: Homo sapiens, NCI-H358, read-out: GI50 Range, H358.
Another assay concerns the target T1, CHK2 (Homo sapiens, UniProt O96017).
T1 construct: CEREP, France (ran the assays)
The experiment in a line: Kinase Selectivity Assay (CEREP, HTRF). As to conditions: read-out: % Inhibition at 10 μM Concentration, CHK2. It is filed as biochemical. Here is the method: (§1) kinase, ROCK2, RSK2, Src kinase, Syk, and TRKA. The % Inhibition was determined

A further assay addresses RSK2 (Homo sapiens, UniProt P51812). The assay is described as follows: Kinase Selectivity Assay (CEREP, HTRF). It is filed as biochemical. The note with it: read-out: % Inhibition at 10 μM Concentration, RSK2. As to the method:
as §1

In a further assay the target is MAPKAPK2 (Homo sapiens, UniProt P49137). The assay is described as follows: Kinase Selectivity Assay (CEREP, HTRF). The note with it: read-out: % Inhibition at 10 μM Concentration, MAPKAPK2. It counts as biochemical. Here is the method:
as §1
On the technique in general: Time-resolved FRET reads energy transfer from a long-lived donor to a nearby acceptor.

Another assay deals with T2, CDK2 (cycE) (Homo sapiens, UniProt P24941).
T2 construct: CEREP, France (ran the assays)
The experiment in a line: Kinase Selectivity Assay (CEREP, HTRF). It counts as biochemical. The note with it: read-out: % Inhibition at 10 μM Concentration, CDK2 (cycE). Here is the method: as §1

The target in the next assay is PDGFRb kinase (Homo sapiens, UniProt P09619). The experiment in a line: Kinase Selectivity Assay (CEREP, HTRF). As to conditions: read-out: % Inhibition at 10 μM Concentration, PDGFRbeta. It is filed as biochemical. Here is the method:
as §1

A further assay deals with T3, FGFR4 kinase (Homo sapiens, UniProt P22455).
T3 construct: CEREP, France (ran the assays)
The experiment in a line: Kinase Selectivity Assay (CEREP, HTRF). It counts as biochemical. As to conditions: read-out: % Inhibition at 10 μM Concentration, FGFR4. As to the method:
as §1

The target of another assay is IRK (InsR) (Homo sapiens, UniProt P06213). The assay is described as follows: Kinase Selectivity Assay (CEREP, HTRF). It counts as biochemical. As to conditions: read-out: % Inhibition at 10 μM Concentration, IRK (InsR). Here is the method: as §1
A further assay deals with T4, CHK1 (Homo sapiens, UniProt O14757).
T4 construct: CEREP, France (ran the assays)
T4 sequence (O14757 1-476): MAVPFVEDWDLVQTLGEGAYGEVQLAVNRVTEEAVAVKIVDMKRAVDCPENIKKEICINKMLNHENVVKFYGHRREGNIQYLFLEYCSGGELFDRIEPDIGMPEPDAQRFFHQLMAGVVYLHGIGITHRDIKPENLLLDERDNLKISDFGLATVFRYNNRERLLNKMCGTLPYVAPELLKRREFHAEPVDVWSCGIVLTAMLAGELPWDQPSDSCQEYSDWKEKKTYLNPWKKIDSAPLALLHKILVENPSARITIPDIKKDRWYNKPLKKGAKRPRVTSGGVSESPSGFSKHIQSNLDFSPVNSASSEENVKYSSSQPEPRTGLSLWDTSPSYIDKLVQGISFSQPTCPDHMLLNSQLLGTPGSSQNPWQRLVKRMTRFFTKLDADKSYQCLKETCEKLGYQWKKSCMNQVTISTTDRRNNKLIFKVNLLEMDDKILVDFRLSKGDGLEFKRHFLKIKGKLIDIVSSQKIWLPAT
The assay is described as follows: Kinase Selectivity Assay (CEREP, HTRF). It counts as biochemical. The note with it: read-out: % Inhibition at 10 μM Concentration, CHK1. As to the method: as §1

The target of the next assay is T5, CDC2/CDK1 (cycB) (Homo sapiens, UniProt P06493).
T5 construct: CEREP, France (ran the assays)
The experiment in a line: Kinase Selectivity Assay (CEREP, HTRF). It counts as biochemical. As to conditions: read-out: % Inhibition at 10 μM Concentration, CDC2/CDK1. Here is the method: as §1

Another assay concerns the target T6, c-Met kinase (Homo sapiens, UniProt P08581).
T6 construct: CEREP, France (ran the assays)
The experiment in a line: Kinase Selectivity Assay (CEREP, HTRF). It counts as biochemical. The note with it: read-out: % Inhibition at 10 μM Concentration, c-Met. As to the method:
as §1

The next assay addresses KDR kinase (VEGFR2) (Homo sapiens, UniProt P35968). The experiment in a line: Kinase Selectivity Assay (CEREP, HTRF). It is filed as biochemical. The note with it: read-out: % Inhibition at 10 μM Concentration, KDR (VEGFR2). As to the method: as §1
The next assay concerns the target Fyn kinase (Homo sapiens, UniProt P06241). The experiment in a line: Kinase Selectivity Assay (CEREP, HTRF). It counts as biochemical. As to conditions: read-out: % Inhibition at 10 μM Concentration, Fyn. Here is the method: as §1

A word on the GI50: it is the concentration that inhibits growth by half.

Each structure is given as a SMILES string. Where only a bound is given, the exact number is not on record here.

Sequence of IRK (InsR) (P06213 28-1382): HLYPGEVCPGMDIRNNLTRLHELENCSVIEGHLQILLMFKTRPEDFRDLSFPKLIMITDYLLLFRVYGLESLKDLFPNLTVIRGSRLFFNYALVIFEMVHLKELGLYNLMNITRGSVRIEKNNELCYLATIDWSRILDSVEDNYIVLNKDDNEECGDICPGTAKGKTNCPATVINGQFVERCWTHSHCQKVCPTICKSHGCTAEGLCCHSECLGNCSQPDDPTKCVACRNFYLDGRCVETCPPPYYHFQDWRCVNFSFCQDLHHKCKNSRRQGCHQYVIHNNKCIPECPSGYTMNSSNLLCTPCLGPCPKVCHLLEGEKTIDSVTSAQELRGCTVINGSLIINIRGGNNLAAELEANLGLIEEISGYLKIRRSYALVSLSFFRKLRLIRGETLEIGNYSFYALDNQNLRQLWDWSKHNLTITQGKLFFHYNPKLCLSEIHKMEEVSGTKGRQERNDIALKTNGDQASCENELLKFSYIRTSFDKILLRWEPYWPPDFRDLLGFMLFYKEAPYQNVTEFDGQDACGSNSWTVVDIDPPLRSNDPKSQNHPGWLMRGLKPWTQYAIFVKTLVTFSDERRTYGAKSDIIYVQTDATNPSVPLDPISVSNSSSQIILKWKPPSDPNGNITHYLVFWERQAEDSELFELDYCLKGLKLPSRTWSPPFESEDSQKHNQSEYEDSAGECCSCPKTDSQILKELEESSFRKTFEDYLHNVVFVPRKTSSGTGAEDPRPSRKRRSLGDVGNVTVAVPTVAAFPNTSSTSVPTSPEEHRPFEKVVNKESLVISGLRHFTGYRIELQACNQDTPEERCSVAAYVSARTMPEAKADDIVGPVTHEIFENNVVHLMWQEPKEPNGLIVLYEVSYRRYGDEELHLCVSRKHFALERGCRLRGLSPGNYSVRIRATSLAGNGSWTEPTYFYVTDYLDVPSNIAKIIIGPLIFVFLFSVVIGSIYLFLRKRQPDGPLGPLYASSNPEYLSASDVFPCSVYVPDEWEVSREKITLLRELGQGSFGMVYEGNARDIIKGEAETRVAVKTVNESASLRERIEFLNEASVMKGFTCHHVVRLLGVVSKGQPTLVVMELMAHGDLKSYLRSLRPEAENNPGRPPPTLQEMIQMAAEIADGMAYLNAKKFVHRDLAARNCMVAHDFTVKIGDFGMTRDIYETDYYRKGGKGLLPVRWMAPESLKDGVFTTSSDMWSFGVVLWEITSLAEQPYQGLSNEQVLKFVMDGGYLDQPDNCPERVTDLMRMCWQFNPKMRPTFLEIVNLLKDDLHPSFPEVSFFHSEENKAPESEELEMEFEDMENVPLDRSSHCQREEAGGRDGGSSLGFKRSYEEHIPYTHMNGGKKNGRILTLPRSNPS
T6 sequence (P08581 25-1390): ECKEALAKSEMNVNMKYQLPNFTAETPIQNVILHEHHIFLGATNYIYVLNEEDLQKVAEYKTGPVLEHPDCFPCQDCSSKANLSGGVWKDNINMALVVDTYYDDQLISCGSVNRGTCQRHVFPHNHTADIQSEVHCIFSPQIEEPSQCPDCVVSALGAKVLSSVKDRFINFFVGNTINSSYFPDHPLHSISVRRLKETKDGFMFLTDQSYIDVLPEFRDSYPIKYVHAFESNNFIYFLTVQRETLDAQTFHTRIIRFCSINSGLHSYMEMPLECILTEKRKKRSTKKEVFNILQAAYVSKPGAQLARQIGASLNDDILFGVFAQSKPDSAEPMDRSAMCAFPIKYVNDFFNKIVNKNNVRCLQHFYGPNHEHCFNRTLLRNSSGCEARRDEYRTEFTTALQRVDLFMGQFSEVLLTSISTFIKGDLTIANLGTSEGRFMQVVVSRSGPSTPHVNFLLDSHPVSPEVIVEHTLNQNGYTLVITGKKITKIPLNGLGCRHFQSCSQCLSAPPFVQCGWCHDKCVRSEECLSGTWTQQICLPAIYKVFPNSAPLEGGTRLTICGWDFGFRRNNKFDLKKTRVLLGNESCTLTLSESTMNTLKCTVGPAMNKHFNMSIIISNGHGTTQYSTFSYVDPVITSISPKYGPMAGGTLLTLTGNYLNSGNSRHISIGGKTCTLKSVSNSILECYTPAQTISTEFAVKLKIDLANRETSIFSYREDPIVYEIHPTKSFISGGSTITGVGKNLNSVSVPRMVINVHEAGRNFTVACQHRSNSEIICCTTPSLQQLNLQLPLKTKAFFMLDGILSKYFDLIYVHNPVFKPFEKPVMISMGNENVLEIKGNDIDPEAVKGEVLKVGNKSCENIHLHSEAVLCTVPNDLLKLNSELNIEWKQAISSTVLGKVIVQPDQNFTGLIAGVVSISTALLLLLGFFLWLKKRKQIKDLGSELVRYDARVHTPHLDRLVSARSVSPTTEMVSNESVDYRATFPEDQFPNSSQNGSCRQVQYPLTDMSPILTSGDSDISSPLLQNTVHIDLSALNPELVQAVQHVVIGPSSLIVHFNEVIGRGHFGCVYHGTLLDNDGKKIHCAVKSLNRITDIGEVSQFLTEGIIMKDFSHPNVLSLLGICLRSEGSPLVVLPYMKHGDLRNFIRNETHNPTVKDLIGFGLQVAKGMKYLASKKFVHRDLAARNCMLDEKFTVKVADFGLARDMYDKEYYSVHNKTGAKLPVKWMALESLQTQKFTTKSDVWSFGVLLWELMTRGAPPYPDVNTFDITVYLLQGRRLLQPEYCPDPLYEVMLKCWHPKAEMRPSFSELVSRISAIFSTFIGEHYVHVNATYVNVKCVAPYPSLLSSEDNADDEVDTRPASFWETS
Sequence of MAPKAPK2 (P49137 whole entry): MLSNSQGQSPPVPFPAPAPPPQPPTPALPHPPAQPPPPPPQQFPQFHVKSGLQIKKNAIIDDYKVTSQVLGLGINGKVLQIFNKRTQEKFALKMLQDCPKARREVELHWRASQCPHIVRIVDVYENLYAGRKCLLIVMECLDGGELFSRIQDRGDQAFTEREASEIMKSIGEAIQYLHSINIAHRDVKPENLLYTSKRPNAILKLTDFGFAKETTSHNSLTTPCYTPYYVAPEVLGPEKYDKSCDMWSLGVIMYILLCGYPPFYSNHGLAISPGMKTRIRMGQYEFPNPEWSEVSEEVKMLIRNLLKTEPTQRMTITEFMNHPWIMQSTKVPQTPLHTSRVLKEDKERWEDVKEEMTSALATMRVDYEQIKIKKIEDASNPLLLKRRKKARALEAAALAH
T3 sequence (P22455 22-802): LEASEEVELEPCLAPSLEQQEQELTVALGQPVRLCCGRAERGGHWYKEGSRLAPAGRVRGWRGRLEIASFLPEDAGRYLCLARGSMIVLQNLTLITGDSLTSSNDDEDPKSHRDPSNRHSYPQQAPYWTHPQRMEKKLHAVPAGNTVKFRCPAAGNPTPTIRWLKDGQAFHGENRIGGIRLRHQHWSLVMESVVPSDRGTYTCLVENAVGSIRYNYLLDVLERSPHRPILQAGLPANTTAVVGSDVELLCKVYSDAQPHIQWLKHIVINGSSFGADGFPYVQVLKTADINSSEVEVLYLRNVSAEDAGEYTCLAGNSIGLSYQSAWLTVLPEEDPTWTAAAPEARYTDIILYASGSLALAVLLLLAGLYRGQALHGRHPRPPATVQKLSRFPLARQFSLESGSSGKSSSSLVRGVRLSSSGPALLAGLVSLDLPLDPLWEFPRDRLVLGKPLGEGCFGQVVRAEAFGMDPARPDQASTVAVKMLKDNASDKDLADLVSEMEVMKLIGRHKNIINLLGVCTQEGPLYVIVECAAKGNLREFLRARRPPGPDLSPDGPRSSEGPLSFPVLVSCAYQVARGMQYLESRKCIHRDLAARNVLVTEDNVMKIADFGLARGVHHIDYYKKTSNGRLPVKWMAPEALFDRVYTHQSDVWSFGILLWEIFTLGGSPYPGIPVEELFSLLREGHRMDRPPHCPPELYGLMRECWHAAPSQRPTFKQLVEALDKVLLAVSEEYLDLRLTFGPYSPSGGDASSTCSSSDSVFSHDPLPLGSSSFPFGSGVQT
Sequence of RSK2 (P51812 whole entry): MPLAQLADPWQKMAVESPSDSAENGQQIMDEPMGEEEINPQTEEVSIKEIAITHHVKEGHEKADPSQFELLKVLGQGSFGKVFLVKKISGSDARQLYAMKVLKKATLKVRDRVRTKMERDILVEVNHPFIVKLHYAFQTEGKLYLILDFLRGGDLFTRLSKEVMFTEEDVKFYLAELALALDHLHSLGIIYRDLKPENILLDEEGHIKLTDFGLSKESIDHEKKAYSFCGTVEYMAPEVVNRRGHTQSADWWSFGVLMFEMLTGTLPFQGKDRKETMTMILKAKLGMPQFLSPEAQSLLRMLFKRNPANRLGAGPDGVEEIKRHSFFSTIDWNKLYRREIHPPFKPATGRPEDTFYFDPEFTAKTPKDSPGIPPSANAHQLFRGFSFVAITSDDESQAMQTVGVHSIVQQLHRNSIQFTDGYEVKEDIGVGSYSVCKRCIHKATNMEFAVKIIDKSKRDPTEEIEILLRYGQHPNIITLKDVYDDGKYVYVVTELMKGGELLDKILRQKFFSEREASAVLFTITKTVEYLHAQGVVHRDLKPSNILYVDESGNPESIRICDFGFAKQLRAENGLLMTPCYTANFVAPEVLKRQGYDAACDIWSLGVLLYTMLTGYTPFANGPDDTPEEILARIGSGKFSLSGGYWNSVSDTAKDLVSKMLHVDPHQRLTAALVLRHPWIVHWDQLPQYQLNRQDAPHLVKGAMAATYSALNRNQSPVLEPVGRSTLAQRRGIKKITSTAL

On to `CN1CCN(c2ccc(/C=C/c3n[nH]c4cc(C=C5C(=O)Nc6ccccc65)ccc34)cn2)CC1` (mixture of isomers) [Example A108, (E and Z)-3-((3-((E)-2-(6-(4-methylpiperazin-1-yl)pyridin-3-yl)vinyl)-1H-indazol-6-yl)methylene)indolin-2-one], for which the GI50 in [1], in assay [2], in assay [3] and in assay [4] was less than 5 µM each time.

Consider `COc1ccc2c(c1)C(=Cc1ccc3c(-c4ccc(N5CCN(C)CC5)nc4)n[nH]c3c1)C(=O)N2` (mixture of isomers) [Example A97, (E and Z)-5-methoxy-3-((3-(6-(4-methylpiperazin-1-yl)pyridin-3-yl)-1H-indazol-6-yl)methylene)indolin-2-one], for which the inhibition at 10 µM came out at 4% on CHK2; 37% at RSK2; 4% at MAPKAPK2; 3% at CDK2 (cycE); 0% at PDGFRb kinase; 30% at FGFR4 kinase. Further, the inhibition at 10 µM on IRK (InsR) came out at 9%; on CHK1 it was 3%; on CDC2/CDK1 (cycB), 15%; at c-Met kinase it was 28%; at KDR kinase (VEGFR2), 93%; on Fyn kinase, 13%. For the same molecule, the GI50 in assay [1] and in assay [2] was less than 5 µM in each case.

Turning to `O=C1Nc2ccccc2C1=Cc1ccc2c(/C=C/c3ccccn3)n[nH]c2c1` (mixture of isomers) [Example A41, (E and Z)-3-((3-((E)-2-(pyridin-2-yl)vinyl)-1H-indazol-6-yl)methylene)indolin-2-one], the inhibition at 10 µM on CHK2 stood at 22%; at RSK2, 38%; at MAPKAPK2, 0%; at CDK2 (cycE), 8%; at PDGFRb kinase, 100%; at FGFR4 kinase it was 38%. Also, the inhibition at 10 µM on IRK (InsR) stood at 34%; at CHK1 it was 7%; at CDC2/CDK1 (cycB), 62%; on c-Met kinase it was 35%; at KDR kinase (VEGFR2), 100%; on Fyn kinase it was 91%. The 50% growth inhibitory concentration (GI50) in [1] was less than 5 µM; in assay [2], 20 to 50 µM; in [3], more than 50 µM; in [4] it was less than 5 µM.

Consider `O=C1Nc2ccccc2/C1=C\c1ccc2[nH]nnc2c1` [Example A1, (E)-3-((1H-benzo[d][1,2,3]triazol-5-yl)methylene)indolin-2-one], for which the inhibition at 10 µM at CHK2 is 14%; at RSK2 it was 4%; at MAPKAPK2, 6%; at CDK2 (cycE), 10%; on PDGFRb kinase, 46%; on FGFR4 kinase, 18%. For the same molecule, the inhibition at 10 µM at IRK (InsR) was 13%; at CHK1, -6%; at CDC2/CDK1 (cycB), 2%; on c-Met kinase, -20%; at KDR kinase (VEGFR2), 59%; on Fyn kinase it was 24%.

For the molecule `O=C1Nc2ncc(Br)cc2C1=Cc1ccc2c(/C=C/c3ccncc3)n[nH]c2c1` (mixture of isomers) [Example A109, (E and Z)-5-bromo-3-((3-((E)-2-(pyridin-4-yl)vinyl)-1H-indazol-6-yl)methyl-ene)-1H-pyrrolo[2,3-b]pyridin-2(3H)-one], the GI50 in assay [1], in assay [2], in assay [3] and in [4] was less than 5 µM each time.

Regarding `O=C1Nc2ccccc2/C1=C\c1ccc2cn[nH]c2c1` [Example A5, (E)-3-((1H-indazol-6-yl)methylene)indolin-2-one], the inhibition at 10 µM at CHK2 is 2%; on RSK2, 1%; on MAPKAPK2, 0%; at CDK2 (cycE), 16%; at PDGFRb kinase, 19%; at FGFR4 kinase, -4%. The inhibition at 10 µM on IRK (InsR) was 12%; on CHK1, -2%; on CDC2/CDK1 (cycB), 9%; at c-Met kinase, 2%; at KDR kinase (VEGFR2), 29%; on Fyn kinase it was 5%.

In the case of `O=C1Nc2ccccc2/C1=C\c1ccc2c(/C=C/c3ccccc3Cl)n[nH]c2c1` [Example A60, (E)-3-((3-((E)-2-chlorostyryl)-1H-indazol-6-yl)methylene)indolin-2-one], the inhibition at 10 µM on CHK2 amounted to 6%; on RSK2, 0%; at MAPKAPK2 it was 19%; on CDK2 (cycE), 5%; on PDGFRb kinase, 2%; at FGFR4 kinase, 6%. Also, the inhibition at 10 µM was 6% at IRK (InsR); -1% on CHK1; 18% at CDC2/CDK1 (cycB); 0% at c-Met kinase; 8% on KDR kinase (VEGFR2); 70% on Fyn kinase.
